SMILES strings stand for the structures.

The target of the assay is T1, cloned human glucagon receptor (Homo sapiens, UniProt P47871).
T1 construct: expressed in transfected cells; plasma membrane preparation
Briefly: Glucagon Binding Assay (II). The settings on record: plasma membranes of BHK cells expressing the receptor; read-out: Glu Bd Assay (II) IC50.

T1 sequence (P47871 26-477): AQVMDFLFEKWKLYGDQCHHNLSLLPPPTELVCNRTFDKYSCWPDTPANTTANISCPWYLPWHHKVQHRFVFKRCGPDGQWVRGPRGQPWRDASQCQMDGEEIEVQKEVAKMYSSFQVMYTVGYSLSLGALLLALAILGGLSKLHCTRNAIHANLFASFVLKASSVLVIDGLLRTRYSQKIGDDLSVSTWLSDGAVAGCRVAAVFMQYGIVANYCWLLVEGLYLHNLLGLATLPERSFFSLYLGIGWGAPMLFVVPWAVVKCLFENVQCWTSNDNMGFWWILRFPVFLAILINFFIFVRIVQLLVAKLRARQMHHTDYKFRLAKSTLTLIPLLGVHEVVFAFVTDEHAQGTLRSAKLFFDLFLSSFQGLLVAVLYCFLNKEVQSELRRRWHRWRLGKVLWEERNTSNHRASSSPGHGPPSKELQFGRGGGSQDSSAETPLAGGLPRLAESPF

Regarding `O=C(Nc1nn[nH]n1)c1ccc(CN(C(=O)Nc2cc(Cl)cc(Cl)c2)c2ccc(C3=CCCCC3)cc2)cc1` [Example 593, 4-[1-(4-Cyclohex-1-enylphenyl)-3-(3,5-dichlorophenyl)ureidomethyl]-N-(2H-tetrazol-5-yl)benzamide], the IC50 – broadly, the concentration that gives 50% inhibition – was 8 nM. In the case of `O=C(Nc1nn[nH]n1)c1ccc(CN(C(=O)Nc2ccc3[nH]ccc3c2)c2ccc(C3CCCCC3)cc2)cc1` [Example 594, 4-{1-(4-Cyclohexylphenyl)-3-(1H-indol-5-yl)ureidomethyl]-N-(2H-tetrazol-5-yl)benzamide], the IC50 stood at 354 nM. `O=C(Nc1nn[nH]n1)c1ccc(CN(C(=O)NCc2ccc(Cl)c(Cl)c2)c2ccc(C3CCCCC3)cc2)cc1` [Example 595, 4-[1-(4-Cyclohexylphenyl)-3-(3,4-dichlorobenzyl)ureidomethyl}-N-(2H-tetrazol-5-yl)benzamide]: the IC50 was determined as 39 nM. Turning to `C[C@H](NC(=O)N(Cc1ccc(C(=O)Nc2nn[nH]n2)cc1)c1ccc(C2CCCCC2)cc1)c1ccccc1` [Example 596, 4-[1-(4-Cyclohexylphenyl)-3-((1S)-1-phenylethyl)ureidomethyl]-N-(2H-tetrazol-5-yl)benzamide], the IC50 turned out to be 112 nM. Consider `N#Cc1ccc(NC(=O)N(Cc2ccc(C(=O)Nc3nn[nH]n3)cc2)c2ccc(C3CCCCC3)cc2)cc1C(F)(F)F` [Example 597, 4-[1-(4-Cyclohexylphenyl)-3-(4-cyano-3-trifluoromethylphenyl)ureidomethyl]-N-(2H-tetrazol-5-yl)benzamide], for which the IC50 is 7 nM. `C[C@@H](NC(=O)N(Cc1ccc(C(=O)Nc2nn[nH]n2)cc1)c1ccc(C2CCCCC2)cc1)c1ccccc1` [Example 598, 4-[1-(4-Cyclohexylphenyl)-3-((1R)-1-phenylethyl)ureidomethyl]-N-(2H-tetrazol-5-yl)benzamide]: the IC50 was 207 nM. As for `O=C(O)CCNC(=O)c1ccc(CN(C(=O)Nc2cc(Cl)cc(Cl)c2)c2ccc(C3=CCCCC3)cc2)cc1` [Example 605, 3-{4-[1-(4-Cyclohex-1-enylphenyl)-3-(3,5-dichlorophenyl)ureidomethyl]benzoylamino}propionic acid], the IC50 amounted to 15 nM.

Turning to `O=C(O)CCNC(=O)c1ccc(CN(C(=O)NCc2ccc(Cl)c(Cl)c2)c2ccc(C3CCCCC3)cc2)cc1` [Example 606, 3-{4-[1-(4-Cyclohexylphenyl)-3-(3,4-dichlorobenzyl)ureidomethyl]benzoylamino}propionic acid], the concentration for half-maximal inhibition (IC50) was determined as 98 nM. Regarding `O=C(O)CCNC(=O)c1ccc(CN(C(=O)Nc2ccc3[nH]ccc3c2)c2ccc(C3CCCCC3)cc2)cc1` [Example 607, 3-{4-[1-(4-Cyclohexylphenyl)-3-(1H-indol-5-yl)ureidomethyl]benzoylamino}propionic acid], the IC50 amounted to 1850 nM.

For `C[C@@H](NC(=O)N(Cc1ccc(C(=O)NCCC(=O)O)cc1)c1ccc(C2CCCCC2)cc1)c1ccccc1` [Example 608, 3-{4-[1-(4-Cyclohexylphenyl)-3-((1R)-1-phenylethyl)ureidomethyl]benzoylamino}propionic acid], the IC50 turned out to be 677 nM. Turning to `C[C@H](NC(=O)N(Cc1ccc(C(=O)NCCC(=O)O)cc1)c1ccc(C2CCCCC2)cc1)c1ccccc1` [Example 609, 3-{4-[1-(4-Cyclohexylphenyl)-3-((1S)-1-phenylethyl)ureidomethyl]benzoylamino}propionic acid], the IC50 was determined as 726 nM.

`C[C@@H](NC(=O)N(Cc1ccc(C(=O)NCCC(=O)O)cc1)c1ccc(C2CCCCC2)cc1)c1ccc2ccccc2c1` [Example 610, 3-{4-[1-(4-Cyclohexylphenyl)-3-[(1R)-1-(2-naphthyl)ethyl]ureidomethyl]benzoylamino}propionic acid]: the IC50 turned out to be 118 nM. Consider `CCOC(=O)C(C)(C)C1CCC(N(Cc2ccc(C(=O)NCCC(=O)O)cc2)C(=O)Nc2ccc(OC(F)(F)F)cc2)CC1` (stereo not shown) [Example 611, 2-{4-[1-[4-(2-Carboxyethylcarbamoyl)benzyl]-3-(4-trifluoromethoxyphenyl)ureido]cyclohexyl}-2-methylpropionic acid ethyl ester], for which the IC50 amounted to 437 nM.

Values taken from US6875760B2 (Novo Nordisk A/S, priority 1999, dated 2005).
